# According to patent publication US11963966B2, “Compositions and methods for treating ovarian tumors” (Dana-Farber Cancer Institute, Inc., priority 2017, dated 2024):
# Where two headings read alike, the source gives them in different places.
# Assays:
# [1] = test system: PDX model DF20 malignant ascites; assay: PDX model DF20, IP injected cancer cells (malignant ascites), IP JSI-124 vs vehicle, BLI; assay type: in vivo, mice
# Method: FIG. 7A-FIG. 7E are a series of graphs and images that depict the impact of JAK/STAT-inhibition on spheroid formation in vivo and anti-tumor activity. […] Each of these were performed following intraperitoneal (IP) or subcutaneous (SC) injection of cancer cells followed by IP therapy with JSI-124 vs. vehicle. Each group includes 5 mice. The inverted triangle indicates the time=0 of cancer cell injection. […] Mice were injected IP with tumor cells and one week later started treatment for a total 14 days. Each group includes 5 mice. Y-axis indicates log of bioluminescence imaging (BLI) signal (log total flux in p/s). Values are given as mean of log BLI signal, error bars indicate standard deviation from the mean. ***p<0.0001 (two-sided t test comparing mean±STDEV at Day 15 of treatment). […] Each group includes 5 mice. Y-axis indicates log BLI signal (log total flux in p/s). Values are given as mean of log BLI signal, error bars indicate standard deviation from the mean. ***p<0.0001 (two-sided t test comparing mean±STDEV at Day 15 of treatment). […] Mice were injected SC with tumor cells and one week later started treatment for a total 14 days. Each group includes 5 mice. Y-axis indicates log BLI signal (log total flux in p/s). Values are given as mean of log BLI signal, error bars indicate standard deviation from the mean. ***p<0.0001 (two-sided t test comparing mean±STDEV at Day 15 of treatment). […] Each group includes 5 mice. Y-axis indicates log BLI signal (log total flux in p/s). Values are given as mean of log BLI signal, error bars indicate standard deviation from the mean. ***p<0.0001 (two-sided t test comparing mean±STDEV at Day 15 of treatment).
# [2] = test system: platinum-resistant ex vivo spheroid cultures of patients DF3266, DF3288, DF3291; assay: Drug sensitivity testing with the growth in low attachment (GILA) assay; assay type: cell-based
# Method: (§1) FIG. 6A-FIG. 6G are a series of graphs and images depicting the impact of JAK/STAT-inhibition on spheroid formation, invasion and killing ex vivo and in vitro. FIG. 6A a histogram (FIG. 11B), showing drug screening with 14 compounds (at 1 μM) inhibiting the JAK/STAT pathway in OVACR4. Relative viability compared to DMSO control measured by CTG. […] The same library was screened in 2D-cultures of OVACR4 (FIG. 11A), and 2D-cultures of OVACR8 (FIG. 11C) and 3D-cultures of OVACR8 (FIG. 11D). FIG. 6B is a series of plots showing drug sensitivity testing using the GILA assay in platinum-resistant ex vivo spheroid cultures of patients DF3291 and DF3266, The X-axis indicates the log μM concentration of drugs indicated in the legend, Y-axis indicates the percentage of luminescence signal as indicator for viability relatively to DMSO treated cells. In both patients, half maximal effective concentration (EC50) were ˜100 nM and ˜10 nM, respectively, while other drugs routinely used for the treatment of (platinum-resistant) ovarian cancer had EC50>10 μM. FIG. 6C is a series of images of microscopic analysis of spheroids with different drug treatments to highlight the morphologic changes during therapy with drugs listed. Inhibition of JAK/STAT pathway disrupts ex vivo spheroid cultures. […] The X-axis indicates established ovarian cancer cell line ID. Y-axis indicates the relative number of formed spheroids when treated with either JSI-124 or carboplatin compared to untreated parental controls. Error bars indicate the standard deviation from the mean number of spheroids. […] JAK/STAT inhibition prevents spheroid formation. […] The Y-axis indicates the clearance ability (using arbitrary units). 20 spheroids clusters were analyzed for each iteration. Data is shown as mean (horizontal bar), interquartile range (box), and minimum and maximum (whiskers). Statistical analysis was performed using 1-way analysis of variance (ANOVA) and post hoc Tukey-Kramer **P<0.05. […] FIG. 6G is a histogram showing the inhibition of the JAK/STAT pathway.
# Single-cell RNA-sequencing was performed on these platinum-resistant patient samples, using the growth in low attachment (GILA) assay (Rotem et al., 2015 Proc. Natl. Acad. Sci. U.S.A, 112:5708-5713; B. Izar and A. Rotem, 2016 Curr. Protoc. Mol. Biol., 116:28.8.1-28.8.12). […] In contrast, all spheroid cultures were resistant to carboplatin, cisplatin, olaparib and paclitaxel at a similar dose range, with the exception of cisplatin with an EC50 of ˜10 μM in patients DF3266 and DF3288.
# [3] = test system: cells from abdominal ascites of ovarian patient NACT14; assay: Sensitivity of patient-derived ovarian cells in a microfluidic device; assay type: cell-based; conditions: 10 μM, ~800 cells in 1 microliter, imaging 48 hours after drug
# Method: Heterogeneous cell population isolated from abdominal ascites of ovarian patient NACT14. A limited number of cells (˜800 cells) in a volume of 1 microliter were tested for sensitivity of JSI124. On day 0, the cells were seeded in the microfluidic device. On day 1, drug was administered, together with a blue dye (FIG. 29-FIG. 31).
# Hoechst confocal imaging (stained nuclei) was used to observe cells forty eight (48) hours after the drug was added (FIG. 32-FIG. 35).
# [4] = test system: ex vivo patient-derived ovarian cancer spheroids; assay: Microscopic analysis of patient-derived spheroids/cells after drug treatment; assay type: cell-based
# Method: FIG. 6A-FIG. 6G are a series of graphs and images depicting the impact of JAK/STAT-inhibition on spheroid formation, invasion and killing ex vivo and in vitro. FIG. 6A a histogram (FIG. 11B), showing drug screening with 14 compounds (at 1 μM) inhibiting the JAK/STAT pathway in OVACR4. Relative viability compared to DMSO control measured by CTG. […] The same library was screened in 2D-cultures of OVACR4 (FIG. 11A), and 2D-cultures of OVACR8 (FIG. 11C) and 3D-cultures of OVACR8 (FIG. 11D). FIG. 6B is a series of plots showing drug sensitivity testing using the GILA assay in platinum-resistant ex vivo spheroid cultures of patients DF3291 and DF3266, The X-axis indicates the log μM concentration of drugs indicated in the legend, Y-axis indicates the percentage of luminescence signal as indicator for viability relatively to DMSO treated cells. In both patients, half maximal effective concentration (EC50) were ˜100 nM and ˜10 nM, respectively, while other drugs routinely used for the treatment of (platinum-resistant) ovarian cancer had EC50>10 μM. FIG. 6C is a series of images of microscopic analysis of spheroids with different drug treatments to highlight the morphologic changes during therapy with drugs listed. Inhibition of JAK/STAT pathway disrupts ex vivo spheroid cultures. […] 20 spheroids clusters were analyzed for each iteration. […]
# [5] = test system: established ovarian cancer cell lines (OVCAR4, OVCAR8, OVASHO, TYKNU, Kuramachi); assay: Spheroid formation in low adherent surface culture; assay type: cell-based
# Method: as §1, with “pathway. […]” for “pathway.”
# [6] = test system: STAT3 activity in Heya8 cells; assay: STAT3-dependent luciferase assay after oncostatin M (OSM) stimulation; assay type: cell-based; conditions: Heya8 cells pre-treated 1 hour vs DMSO, then OSM stimulation
# [7] = ascites allowed to form 3 weeks, then IP treatment 14 days
# [8] = tumor cells IP, 7 days growth, then 14 days IP therapy
compound,measurement,setting,value
"CC(C)(O)/C=C/C(=O)[C@](C)(O)[C@H]1[C@@H](O)C[C@@]2(C)[C@@H]3CC=C4[C@H](C=C(O)C(=O)C4(C)C)[C@]3(C)C(=O)C[C@]12C [JSI-124, cucurbitacin I]",BLI signal of established malignant ascites,[1]; [7],significant reduction in BLI signal of malignant ascites
same,mean day 15 log BLI signal±standard deviation,[1]; [7],1.29×10^9±6×10^8 p/s
same,Development of malignant ascites,[1]; [8],completely abrogated development of malignant ascites
same,mean day 15 log BLI signal±standard deviation,[1]; [8],1.47×10^8±6.5×10^7 p/s
same,Emax,[2]; Homo sapiens,≤ 99%
same,EC50,"[2]; Homo sapiens, read-out: EC50 (viability, luminescence relative to DMSO), patient DF3266",~10 nM
same,EC50,"[2]; Homo sapiens, read-out: EC50 (viability, luminescence relative to DMSO), patient DF3291",~100 nM
same,"EC50 values, single-agent cytotoxic activity","[2]; all tested models (DF3266, DF3288, DF3291)",nanomolar ranges
same,Effectiveness against patient-derived ovarian cells,[3],Effective
same,Morphology of ex-vivo patient-derived ovarian cells after treatment,[4]; FIG. 36,massive elimination of tumor cells
same,Spheroid morphology / integrity,[4]; platinum-resistant ex vivo spheroids,disintegration of the solid 3D spheroid structure
same,Number of spheroids vs DMSO control,[5]; Kuramachi,significantly reduced the number of spheroids
same,Formation of spheroids vs DMSO control,"[5]; OVCAR4, OVCAR8, OVASHO, TYKNU",completely abrogated the formation of spheroids
same,STAT3-dependent luciferase activity,[6],significant reduction in STAT-dependent expression
